Where two headings read alike, the source gives them in different places.
Columns and labels:
renalase [1] = tested on: renalase
Method: Horizontal bars at top of figure indicate period of 5 minute epinephrine infusions.

renalase [2] = biological target: renalase (Rattus norvegicus, UniProt Q5U2W9); settings: CKD rats compared with control rats
renalase (Rattus norvegicus, UniProt Q5U2W9), sequence (Q5U2W9 18-315): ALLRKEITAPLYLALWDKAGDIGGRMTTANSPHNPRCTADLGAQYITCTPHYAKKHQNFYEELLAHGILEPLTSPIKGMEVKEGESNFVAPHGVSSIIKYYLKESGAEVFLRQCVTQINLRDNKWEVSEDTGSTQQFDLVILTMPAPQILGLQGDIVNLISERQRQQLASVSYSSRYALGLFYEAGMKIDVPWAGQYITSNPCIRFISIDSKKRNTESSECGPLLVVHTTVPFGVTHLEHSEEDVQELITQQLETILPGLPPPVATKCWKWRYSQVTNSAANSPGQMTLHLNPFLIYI

## CNC[C@H](O)c1ccc(O)c(O)c1 [epinephrine]
Renalase [1]; second administration 30 minutes later
  renalase protein levels in blood: only a modest decline
Renalase [1]; shortly after an initial infusion of epinephrine
  renalase protein levels in blood: drop significantly
Renalase [1]; within ten minutes of the initial infusion
  renalase protein levels in blood: recover and exceed initial protein levels
Renalase [2]
  magnitude and duration of blood renalase activation: significantly lower
